Experiments:
Format in all cases: cell-based
mSLC1A5 = biological target: T1, mSLC1A5 (Mus musculus, UniProt P51912); assay: TEVC block of anion leak conductance in oocytes; details: for Ki: mSLC1A5, from dose–response of blocked anion conductance, compounds tested only once without standard error, read-out: SLC1A5 Ki
T1 construct: expressed in transfected cells; host or cells: Xenopus laevis oocytes (cRNA injection)
T1 sequence (P51912 1-553): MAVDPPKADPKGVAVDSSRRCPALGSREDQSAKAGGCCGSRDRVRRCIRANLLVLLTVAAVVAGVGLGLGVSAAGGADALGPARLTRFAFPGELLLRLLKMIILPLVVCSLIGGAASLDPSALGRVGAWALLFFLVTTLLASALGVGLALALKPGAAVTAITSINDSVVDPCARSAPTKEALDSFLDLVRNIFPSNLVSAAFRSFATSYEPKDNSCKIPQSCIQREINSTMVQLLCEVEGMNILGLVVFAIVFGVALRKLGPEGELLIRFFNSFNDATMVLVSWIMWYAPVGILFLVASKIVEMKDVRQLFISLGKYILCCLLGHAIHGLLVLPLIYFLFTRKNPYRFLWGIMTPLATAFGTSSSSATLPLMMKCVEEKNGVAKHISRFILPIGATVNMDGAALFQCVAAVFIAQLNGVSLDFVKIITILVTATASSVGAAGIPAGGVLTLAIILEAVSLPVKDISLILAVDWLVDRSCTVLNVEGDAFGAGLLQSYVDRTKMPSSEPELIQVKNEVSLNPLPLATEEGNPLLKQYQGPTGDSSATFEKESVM
Description: (§1) The currents induced by substrates and blocked by hydroxyproline analogs shared a reversal potential shown in the current/voltage relationship consistent with the conductance originating from the same ion pore (Figure 3, inset). […] The observed dose–response relationships are independent of competing substrates, and thus provide a direct measure of the equilibrium inhibition constant (Ki). Each synthetic hydroxyproline analog was functionally assessed for its capacity to inhibit SLC1A4 and SLC1A5 leak currents with affinities reported in Table 1 as determined or approximated Ki.
(§2) Two-electrode voltage clamp (TEVC) transporter currents were recorded with a GeneClamp 500 amplifier and Digidata 1320A analog–digital interface (Molecular Devices, San Jose, CA, USA). Electrodes (0.2–1.0 MΩ) were filled with 3M KCl and the recording chamber was grounded with an agar bridge. Data were acquired with Axograph (v1.7.6) and LabChart (v7) and analyzed with Kaleidagraph software (v4.1) (Synergy, Reading, PA, USA). Uncoupled anion currents associated with the transport of substrate and block of SLC1A4 or SLC1A5 mediated leak conductance were recorded in the presence of Ringer with 50% substitution of NaCl by NaSCN to amplify the non-transported anion conductance.
(§3) Figure 3 AHPCs block a leak current in SLC1A4 and SLC1A5. […] Inset (A): The current and voltage relationship for SLC1A4 currents activated by Ala or blocked by 14b are determined by subtracting voltage jumps in buffer.

SLC1A4 = biological target: T2, SLC1A4 (Homo sapiens, UniProt P43007); assay: TEVC block of anion leak conductance in oocytes; details: for Ki: read-out: SLC1A4 Ki
T2 construct: expressed in transfected cells; host or cells: Xenopus laevis oocytes (cRNA injection)
T2 sequence (P43007 1-532): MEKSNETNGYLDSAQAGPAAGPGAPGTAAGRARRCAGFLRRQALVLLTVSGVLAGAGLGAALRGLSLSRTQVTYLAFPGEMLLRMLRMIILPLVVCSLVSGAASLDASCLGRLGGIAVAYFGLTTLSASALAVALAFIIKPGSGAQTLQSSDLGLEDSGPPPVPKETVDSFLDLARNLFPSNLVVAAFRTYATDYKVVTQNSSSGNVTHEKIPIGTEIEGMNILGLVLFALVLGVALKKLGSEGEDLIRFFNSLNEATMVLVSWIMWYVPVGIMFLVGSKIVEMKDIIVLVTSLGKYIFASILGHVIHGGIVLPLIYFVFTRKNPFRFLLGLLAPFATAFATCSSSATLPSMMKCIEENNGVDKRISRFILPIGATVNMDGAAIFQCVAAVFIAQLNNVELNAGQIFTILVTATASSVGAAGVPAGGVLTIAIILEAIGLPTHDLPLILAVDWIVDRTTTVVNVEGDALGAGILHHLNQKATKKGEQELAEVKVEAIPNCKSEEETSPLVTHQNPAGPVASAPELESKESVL
Description: as §1, §2, §3

SLC1A5 = biological target: T3, SLC1A5 (Mus musculus, UniProt P51912); assay: [3H]L-Gln radiolabeled uptake competition in oocytes; details: 10 µM [3H]L-Gln uptake in SLC1A5; read-out: IC50, block of [3H]L-Gln uptake
T3 construct: expressed in transfected cells; host or cells: Xenopus laevis oocytes (cRNA injection)
T3 sequence (P51912 1-553): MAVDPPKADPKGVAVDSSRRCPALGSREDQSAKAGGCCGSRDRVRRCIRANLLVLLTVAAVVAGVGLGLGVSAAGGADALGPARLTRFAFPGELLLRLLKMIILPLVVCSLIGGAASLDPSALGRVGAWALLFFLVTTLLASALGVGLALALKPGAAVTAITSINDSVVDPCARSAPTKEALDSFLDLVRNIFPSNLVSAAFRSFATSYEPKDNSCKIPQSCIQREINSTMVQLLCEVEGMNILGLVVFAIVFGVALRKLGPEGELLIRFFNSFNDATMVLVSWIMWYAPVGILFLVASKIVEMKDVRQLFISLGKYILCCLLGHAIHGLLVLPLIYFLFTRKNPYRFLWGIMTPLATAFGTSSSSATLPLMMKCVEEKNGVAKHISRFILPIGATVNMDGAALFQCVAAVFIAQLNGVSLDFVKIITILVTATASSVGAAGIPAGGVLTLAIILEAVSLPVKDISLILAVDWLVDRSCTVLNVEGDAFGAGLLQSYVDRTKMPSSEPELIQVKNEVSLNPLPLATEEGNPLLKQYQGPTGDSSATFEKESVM
Procedure: Uptake was halted by washing 3 times with 4 °C ND96 buffer. Oocytes were then lysed in 0.1% Triton X-100, and radioactivity was counted via liquid scintillation. Dose response curves were generated by fitting fractional inhibition (I) to the expression I = Imax × [inhibitor]/([inhibitor] + IC50).
(A) SLC1A4 dose response curves for substrate activated anion currents using two-electrode voltage clamp of Xenopus lavies oocytes (−30 mV). […] (B) SLC1A5 dose response curve for substrate activated anion currents using two-electrode voltage clamp (−30 mV). […] Extracellular solutions contained 50 mM NaSCN.

[1] = from dose–response of blocked anion conductance, compounds tested only once without standard error

Ki (mSLC1A5) [µM] | Ki (SLC1A4; [1]) [µM] | SMILES | other results
1130 ± 318 | 332 ± 74 | O=C(O)C1NCC(O)C1c1ccccc1 [10d, cis-3-phenyl-4-trans-hydroxy-L-proline] | 
~600 | ~600 | O=C(O)C1NCC(c2ccccc2)C1O (centres unmarked) [10c] | 
 |  | CC(C)O[C@@H]1CN[C@H](C(=O)O)[C@H]1O [14b, trans-3-hydroxy-cis-4-isopropoxy-L-proline] | block of anion leak conductance / inhibition (mSLC1A5; SLC1A5): block the anion conductance; block of anion leak conductance / inhibition (SLC1A4; SLC1A4): block the anion conductance
 |  | O=C(O)[C@H]1NCC[C@@H]1O [3-HP, trans-3-hydroxy-L-proline] | IC50 (SLC1A5): 39 µM
 |  | C[C@@]1(O)CN[C@H](C(=O)O)C1 [compound 27, cis-4-hydroxy-trans-4-methyl-L-proline] | SLC1A4 Ki (µM) (SLC1A4; [1]): No Block

From paper PMC11123841, “Discovery and Synthesis of Hydroxy-L-Proline Blockers of the Neutral Amino Acid Transporters SLC1A4 (ASCT1) and SLC1A5 (ASCT2)” (Molecules, 2024)
